Read-outs that look alike come from different tables or passages of the source.
Tests used:
Assay type in all cases: in vivo
[1] = tested on: adult fleas (Ctenocephalides felis); experiment: Ctenocephalides felis; oral (CTECFE); conditions: 100 ppm in citrated cattle blood, after 2 days
Experimental: 4. Ctenocephalides felis; Oral (CTECFE)
Solvents: 1 part by weight of dimethyl sulfoxide
To produce a suitable preparation of active compound, 10 mg of active compound are mixed with 0.5 ml of dimethyl sulfoxide. A portion of the concentrate is diluted with citrated cattle blood, and the desired concentration is prepared.
About 20 unfed adult fleas (Ctenocephalides felis) are placed into a chamber which is closed at the top and bottom with gauze. A metal cylinder whose bottom end is closed with parafilm is placed onto the chamber. The cylinder contains the blood/active compound preparation, which can be taken up by the fleas through the parafilm membrane.
After 2 days, the kill in % is determined 100% means that all of the fleas have been killed; 0% means that none of the fleas have been killed.

[2] = tested on: green peach aphid (Myzus persicae); experiment: Myzus test (MYZUPE spray treatment); conditions: for pest or weed control at 500 g/ha: Myzus persicae, foliar, 144 h, read-out: effect in % (aphids killed)
Experimental: 2. Myzus Test (MYZUPE Spray Treatment)
(§1) Solvents: 78.0 parts by weight of acetone • • 1.5 parts by weight of dimethylformamide Emulsifier: 0.5 part by weight of alkylaryl polyglycol ether
(§2) To produce a suitable preparation of active compound, 1 part by weight of active compound is mixed with the stated amounts of solvent and emulsifier, and the concentrate is diluted with emulsifier-containing water to the desired concentration.
Disks of Chinese cabbage leaves (Brassica pekinensis) infested by all stages of the green peach aphid (Myzus persicae) are sprayed with an active compound preparation of the desired concentration.
After 6 days, the effect in % is determined. 100% means that all of the aphids have been killed; 0% means that none of the aphids have been killed.

Lucilia cuprina larvae = experiment: Lucilia cuprina test (LUCICU); conditions: 100 ppm; treated horse meat; after 48 hours
Experimental: 5. Lucilia cuprina Test (LUCICU)
(§3) Solvent: dimethyl sulfoxide
(§4) To produce a suitable preparation of active compound, 10 mg of active compound are mixed with 0.5 ml of dimethyl sulfoxide, and the concentrate is diluted with water to the desired concentration.
Vessels containing horse meat treated with the active compound preparation of the desired concentration are populated with about 20 Lucilia cuprina larvae.
After 48 hours, the kill in % is determined 100% means that all larvae have been killed; 0% means that no larvae have been killed.

[3] = tested on: larvae of the mustard beetle (Phaedon cochleariae); experiment: Phaedon test (PHAECO spray treatment); conditions: application rate 500 g/ha; spray on Chinese cabbage leaf disks; after 7 days
Experimental: 1. Phaedon Test (PHAECO Spray Treatment)
as §1, §2
Disks of Chinese cabbage leaves (Brassica pekinensis) are sprayed with an active compound preparation of the desired concentration and, after drying, populated with larvae of the mustard beetle (Phaedon cochleariae).
After 7 days, the effect in % is determined. 100% means that all beetle larvae have been killed; 0% means that none of the beetle larvae have been killed.

Cooperia curticei larvae = experiment: Cooperia curticei test (COOPCU); conditions: 100 ppm in Ringer solution; after 5 days
Experimental: 7. Cooperia curticei Test (COOPCU)
as §3
To produce a suitable preparation of active compound, 10 mg of active compound are mixed with 0.5 ml of dimethyl sulfoxide, and the concentrate is diluted with Ringer solution to the desired concentration. Vessels containing the active compound preparation of the desired concentration are populated with about 40 Cooperia curticei larvae.
After 5 days, the kill in % is determined. 100% means that all larvae have been killed; 0% means that no larvae have been killed.

adult Musca domestica = experiment: Musca domestica test (MUSCDO); conditions: 100 ppm; treated sponge; after 2 days
Experimental: 6. Musca domestica Test (MUSCDO)
as §3, §4
Vessels containing a sponge treated with the active compound formulation of the desired concentration are populated with adult Musca domestica.
After 2 days, the kill in % is determined. 100% means that all of the flies have been killed; 0% means that none of the flies have been killed.

[4] = tested on: greenhouse red spider mite (Tetranychus urticae); experiment: Tetranychus test, OP-resistant (TETRUR spray treatment); conditions: application rate 100 g/ha; spray on infested bean leaf disks; after 6 days
Experimental: 3. Tetranychus Test, OP-Resistant (TETRUR Spray Treatment)
as §1, §2
Disks of bean leaves (Phaseolus vulgaris) which are infested by all stages of the greenhouse red spider mite (Tetranychus urticae) are sprayed with an active compound preparation of the desired concentration.
After 6 days, the effect in % is determined. 100% here means that all of the spider mites have been killed. 0% means that none of the spider mites have been killed.

[5] = application rate 500 g/ha, spray on infested Chinese cabbage leaf disks, after 6 days

O=c1nc2n(Cc3cnc(Cl)s3)cccc-2o1 [Example I-6, 4-(2-Chloro-1,3-thiazol-5-ylmethyl)oxazolo[4,5-b]pyridin-2(4H)-one]
kill in % (fleas killed) [1]: 80%
pest or weed control at 500 g/ha ([2]; in Brassica rapa): 100%
kill in % (larvae killed) (Lucilia cuprina larvae): 100%
effect in % (beetle larvae killed) [3]: 100%

O=c1nc2n(Cc3ccc(Br)nc3)cccc-2o1 [Example I-10, 4-(6-Bromopyridin-3-ylmethyl)oxazolo[4,5-b]pyridin-2(4H)-one]
pest or weed control at 500 g/ha ([2]; in Brassica rapa): 100%
effect in % (beetle larvae killed) [3]: 100%

O=c1nc2n(Cc3ccc(Cl)nc3)cccc-2o1 [Example I-3, 4-(6-Chloropyridin-3-ylmethyl)oxazolo[4,5-b]pyridin-2(4H)-one]
kill in % (larvae killed) (Cooperia curticei larvae): 80%
pest or weed control at 500 g/ha ([2]; in Brassica rapa): 100%
kill in % (larvae killed) (Lucilia cuprina larvae): 100%
effect in % (beetle larvae killed) [3]: 100%

Cc1cnc(Cn2cccc3oc(=O)nc2-3)cn1 [Example I-5, 4-(5-Methylpyrazin-2-ylmethyl)oxazolo[4,5-b]pyridin-2(4H)-one]
pest or weed control at 500 g/ha [2, 5]: 100%

O=c1oc2cccnc2n1Cc1ccc(C(F)(F)F)nc1 [IV-I, 3-(6-trifluoromethylpyridin-3-ylmethyl)oxazolo[4,5-b]-2(3H)-one]
effect in % (aphids killed) [2, 5]: 90%

O=c1nc2n(Cc3cnc(Cl)c(F)c3)cccc-2o1 [Example I-4, 4-(6-Chloro-5-fluoropyridin-3-ylmethyl)oxazolo[4,5-b]pyridin-2(4H)-one]
pest or weed control at 500 g/ha ([2]; in Brassica rapa): 100%
kill in % (flies killed) (adult Musca domestica): 80%
kill in % (larvae killed) (Lucilia cuprina larvae): 100%
effect in % (beetle larvae killed) [3]: 100%

O=c1nc2n(Cc3ccc(Cl)nc3)cc(Br)cc-2o1 [Example I-11, 6-Bromo-4-(6-chloropyridin-3-ylmethyl)oxazolo[4,5-b]pyridin-2(4H)-one]
pest or weed control at 500 g/ha ([2]; in Brassica rapa): 100%

CC(=O)N(Cc1ccc(Cl)nc1)c1ncccc1OCc1ccc(Cl)nc1 [Example I-16a, 2-[(N-acetyl, N′-(6-chloropyridin-3-ylmethyl)amino)]-3-(6-chloropyridin-3-ylmethoxy)pyridine]
effect in % (spider mites killed) [4]: 90%

O=c1nc2n(Cc3cnc(Cl)c(Cl)c3)cccc-2o1 [Example I-2, 4-(5,6-Dichloropyridin-3-ylmethyl)oxazolo[4,5-b]pyridin-2(4H)-one]
pest or weed control at 500 g/ha ([2]; in Brassica rapa): 100%
kill in % (larvae killed) (Lucilia cuprina larvae): 100%
effect in % (beetle larvae killed) [3]: 100%

O=c1oc2cccnc2n1Cc1cnc(Cl)c(Cl)c1 [IV-2, 3-(5,6-dichloropyridin-3-ylmethyl)oxazolo[4,5-b]-2(3H)-one]
effect in % (aphids killed) [2, 5]: 100%

O=c1nc2n(Cc3ccc(C(F)(F)F)nc3)cccc-2o1 [Example I-1, 4-(6-Trifluoromethylpyridin-3-ylmethyl)oxazolo[4,5-b]pyridin-2(4H)-one]
pest or weed control at 500 g/ha [2, 5]: 100%

O=C1N=C2C(CCCN2Cc2ccc(Cl)nc2)O1 (stereo not shown) [Example I-16, 4-(6-Chloropyridin-3-ylmethyl)-5,6,7,7a-tetrahydrooxazolo[4,5-b]-pyridin-2(4H)-one]
pest or weed control at 500 g/ha ([2]; in Brassica rapa): 100%
effect in % (spider mites killed) [4]: 100%
effect in % (beetle larvae killed) [3]: 100%

O=c1nc2n(Cc3ccc(F)nc3)cccc-2o1 [Example I-9, 4-(6-Fluoropyridin-3-ylmethyl)oxazolo[4,5-b]pyridin-2(4H)-one]
pest or weed control at 500 g/ha ([2]; in Brassica rapa): 100%
kill in % (larvae killed) (Lucilia cuprina larvae): 100%
